# Experimental data from patent publication US20230407243A1, “GENETIC PLATFORM TO INVESTIGATE THE FUNCTIONS OF BACTERIAL DRUG EFFLUX PUMPS” (priority 2022, published 2023).
# Read-outs that look alike come from different tables or passages of the source.
# Tests used:
# Assay type in all cases: cell-based, Escherichia coli
# [1] = tested on: ΔtolC (empty pCA24N); experiment: microbe, parasite or virus in culture; details: 0.1 mM IPTG; for MIC: Escherichia coli, ΔtolC empty pCA24N
# [2] = tested on: EKO-35 rspA (pCA24N); experiment: MIC of strains harboring ASKA plasmids; details: 0.1 mM IPTG
# [3] = tested on: K-12 (empty pCA24N); experiment: MIC of strains harboring ASKA plasmids; details: 0.1 mM IPTG
# [4] = tested on: EKO-35 wcaC (pCA24N); experiment: MIC of strains harboring ASKA plasmids; details: 0.1 mM IPTG
# [5] = tested on: ΔtolC-Pore
# In short: (§1)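 MHB II, CLSI microdilution checkerboard, colony-resuspension inoculum, solvent controls per plate. MIC = no growth at OD600. FICI summed from FIC of PAβN/NMP and antibiotic; <0.5 synergistic, >2.0 antagonistic.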
# [6] = tested on: EKO-35 acrBD408A
# In short: as §1
# [7] = tested on: wild-type E. coli K-12; details: for MICb Combined: antibiotic in combination with PAβN
# In short: as §1
# [8] = tested on: ΔtolC
# In short: as §1
# [9] = tested on: EKO-35; details: for interaction of PAβN in combination with the labelled antibiotic (FICI): efflux-deficient strains EKO-35, EKO-35 acrBD408A, ΔtolC
# In short: as §1
# [10] = tested on: EKO-35-Pore acrBD408A (functionally inactive AcrB variant); experiment: Checkerboard synergy (FICI), porinated strain
# In short: as §1
# [11] = tested on: EKO-35 porinated strain expressing acrB; experiment: Checkerboard synergy (FICI), porinated strain
# In short: as §1
# [12] = tested on: wild-type K-12-Pore; experiment: Checkerboard synergy (FICI), porinated strain
# In short: as §1
# [13] = tested on: EKO-35-Pore; experiment: Checkerboard synergy (FICI), porinated strain; details: for interaction of PAβN in combination with the labelled antibiotic (FICI): porinated efflux-deficient strains
# In short: as §1
# [14] = 4 μg/mL chloramphenicol selection
# [15] = strain ΔtolC Pore, NMP + antibiotic
# [16] = ΔtolC Pore, antibiotic alone (PAβN checkerboard)
# [17] = ΔtolC Pore, antibiotic in combination with PAβN
# [18] = EKO-35 acrBD408A, PAβN + antibiotic
# [19] = EKO-35 acrBD408A, antibiotic alone (PAβN checkerboard)
# [20] = EKO-35 acrBD408A, antibiotic in combination with PAβN
# [21] = strain EKO-35 acrBD408A, NMP + antibiotic
# [22] = K-12, antibiotic alone (PAβN checkerboard)
# [23] = ΔtolC, antibiotic alone (PAβN checkerboard)
# [24] = ΔtolC, antibiotic in combination with PAβN
# [25] = EKO-35, antibiotic alone (PAβN checkerboard)
# [26] = EKO-35, antibiotic in combination with PAβN
# [27] = strain EKO-35, NMP + antibiotic
# [28] = EKO-35 acrBD408A Pore, PAβN + antibiotic
# [29] = EKO-35 acrBD408A Pore, antibiotic alone (PAβN checkerboard)
# [30] = EKO-35 acrBD408A Pore, antibiotic in combination with PAβN
# [31] = strain EKO-35 acrBD408A Pore, NMP + antibiotic
# [32] = EKO-35 acrB Pore, NMP + antibiotic
# [33] = EKO-35 acrB Pore, PAβN + antibiotic
# [34] = EKO-35 acrB Pore, antibiotic in combination with PAβN
# [35] = strain EKO-35 acrB Pore, NMP + antibiotic
# [36] = K-12 Pore, antibiotic alone (PAβN checkerboard)
# [37] = K-12 Pore, antibiotic in combination with PAβN
# [38] = strain K-12 Pore, NMP + antibiotic
# [39] = EKO-35 Pore, antibiotic alone (PAβN checkerboard)
# [40] = EKO-35 Pore, antibiotic in combination with PAβN
# [41] = strain EKO-35 Pore, NMP + antibiotic
smiles,measurement,setting,value
N#Cc1ccc(-c2c(NC(=O)C(Cl)Cl)oc(-c3cccs3)c2C#N)cc1 [compound 2],"MIC, ΔtolC (empty pCA24N), Chlor −",[1]; no plasmid selection,1.25 μg/mL
same,"MIC, ΔtolC (empty pCA24N), Chlor +",[1]; with chloramphenicol plasmid selection,1.25 μg/mL
same,"MIC, EKO-35 rspA (pCA24N), Chlor +",[2]; [14],>5 μg/mL
same,"MIC, EKO-35 rspA (pCA24N), Chlor −",[2]; no plasmid selection,>5 μg/mL
same,"MIC, K-12 (empty pCA24N), Chlor +",[3]; 25 μg/mL chloramphenicol selection,>5 μg/mL
same,"MIC, K-12 (empty pCA24N), Chlor −",[3]; no plasmid selection,>5 μg/mL
same,"MIC, EKO-35 wcaC (pCA24N), Chlor +",[4]; [14],>5 μg/mL
same,"MIC, EKO-35 wcaC (pCA24N), Chlor −",[4]; no plasmid selection,>5 μg/mL
Cc1onc(-c2ccccc2)c1C(=O)N[C@@H]1C(=O)N2[C@@H]1SC(C)(C)[C@@H]2C(=O)O [oxacillin],Effect,[5]; [15],Additive (additive (FICI >0.5-1.0))
same,FICI,[5]; [15],0.531
same,MICb Alone,"[5]; strain ΔtolC Pore, antibiotic alone",1 µg/mL
same,MICb Combined,"[5]; strain ΔtolC Pore, antibiotic in combination with NMP",0.5 µg/mL
same,Effect,"[5]; ΔtolC Pore, NMP + antibiotic",Additive
same,FICI,"[5]; ΔtolC Pore, NMP + antibiotic",0.531
same,Effect,"[5]; ΔtolC Pore, PAβN + antibiotic",Additive
same,FICI,"[5]; ΔtolC Pore, PAβN + antibiotic",0.740
same,MICb Alone,[5]; [16],0.25 µg/mL
same,MICb Combined,[5]; [17],0.06 µg/mL
same,FICI,"[6]; EKO-35 acrBD408A, NMP + antibiotic",2.000
same,Effect,[6]; [18],Synergistic
same,FICI,[6]; [18],0.185
same,MICb Alone,[6]; [19],1 µg/mL
same,MICb Combined,[6]; [20],0.06 µg/mL
same,Effect,[6]; [21],— (indifferent (FICI >1.0))
same,FICI,[6]; [21],2.000
same,MICb Alone,"[6]; strain EKO-35 acrBD408A, antibiotic alone",0.13 µg/mL
same,MICb Combined,"[6]; strain EKO-35 acrBD408A, antibiotic in combination with NMP",0.13 µg/mL
same,Effect,"[7]; K-12, NMP + antibiotic",Synergistic
same,FICI,"[7]; K-12, NMP + antibiotic",0.375
same,Effect,"[7]; K-12, PAβN + antibiotic",Synergistic
same,FICI,"[7]; K-12, PAβN + antibiotic",0.188
same,MICb Alone,[7]; [22],512 µg/mL
same,MICb Combined,[7]; K-12,32 µg/mL
same,Effect,"[7]; strain K-12, NMP + antibiotic",Synergistic (Synergy (FICI ≤0.5))
same,FICI,"[7]; strain K-12, NMP + antibiotic",0.375
same,MICb Alone,"[7]; strain K-12, antibiotic alone",512 µg/mL
same,Effect,"[8]; strain ΔtolC, NMP + antibiotic",Additive (additive (FICI >0.5-1.0))
same,FICI,"[8]; strain ΔtolC, NMP + antibiotic",0.531
same,MICb Alone,"[8]; strain ΔtolC, antibiotic alone",1 µg/mL
same,MICb Combined,"[8]; strain ΔtolC, antibiotic in combination with NMP",0.5 µg/mL
same,Effect,"[8]; ΔtolC, NMP + antibiotic",Additive
same,FICI,"[8]; ΔtolC, NMP + antibiotic",0.531
same,Effect,"[8]; ΔtolC, PAβN + antibiotic",Synergistic
same,FICI,"[8]; ΔtolC, PAβN + antibiotic",0.313
same,MICb Alone,[8]; [23],1 µg/mL
same,MICb Combined,[8]; [24],0.25 µg/mL
same,Effect,"[9]; EKO-35, NMP + antibiotic",Additive
same,FICI,"[9]; EKO-35, NMP + antibiotic",0.510
same,Effect,"[9]; EKO-35, PAβN + antibiotic",Synergistic
same,FICI,"[9]; EKO-35, PAβN + antibiotic",0.323
same,MICb Alone,[9]; [25],0.5 µg/mL
same,MICb Combined,[9]; [26],0.13 µg/mL
same,interaction of PAβN in combination with the labelled antibiotic (FICI),[9],synergized
same,Effect,[9]; [27],Additive (additive (FICI >0.5-1.0))
same,FICI,[9]; [27],0.510
same,MICb Alone,"[9]; strain EKO-35, antibiotic alone",0.5 µg/mL
same,MICb Combined,"[9]; strain EKO-35, antibiotic in combination with NMP",0.13 µg/mL
same,FICI,"[10]; EKO-35 acrBD408A Pore, NMP + antibiotic",2.000
same,FICI,[10]; [28],1.020
same,MICb Alone,[10]; [29],0.25 µg/mL
same,MICb Combined,[10]; [30],0.13 µg/mL
same,Effect,[10]; [31],— (indifferent (FICI >1.0))
same,FICI,[10]; [31],2.000
same,MICb Alone,"[10]; strain EKO-35 acrBD408A Pore, antibiotic alone",0.13 µg/mL
same,MICb Combined,"[10]; strain EKO-35 acrBD408A Pore, antibiotic in combination with NMP",0.13 µg/mL
same,Effect,[11]; [32],Synergistic
same,FICI,[11]; [32],0.500
same,Effect,[11]; [33],Synergistic
same,MICb Combined,[11]; [34],16 µg/mL
same,potentiation of the labelled compound by NMP,[11]; porinated strain producing AcrB,enhancing the activity
same,Effect,[11]; [35],Synergistic (Synergy (FICI ≤0.5))
same,FICI,[11]; [35],0.500
same,MICb Alone,"[11]; strain EKO-35 acrB Pore, antibiotic alone",64 µg/mL
same,MICb Combined,"[11]; strain EKO-35 acrB Pore, antibiotic in combination with NMP",16 µg/mL
same,Effect,"[12]; K-12 Pore, NMP + antibiotic",Synergistic
same,FICI,"[12]; K-12 Pore, NMP + antibiotic",0.266
same,Effect,"[12]; K-12 Pore, PAβN + antibiotic",Additive
same,FICI,"[12]; K-12 Pore, PAβN + antibiotic",0.750
same,MICb Alone,[12]; [36],32 µg/mL
same,MICb Combined,[12]; [37],16 µg/mL
same,Effect,[12]; [38],Synergistic (Synergy (FICI ≤0.5))
same,FICI,[12]; [38],0.266
same,MICb Alone,"[12]; strain K-12 Pore, antibiotic alone",64 µg/mL
same,MICb Combined,"[12]; strain K-12 Pore, antibiotic in combination with NMP",16 µg/mL
same,Effect,"[13]; EKO-35 Pore, NMP + antibiotic",Additive
same,FICI,"[13]; EKO-35 Pore, NMP + antibiotic",0.750
same,FICI,"[13]; EKO-35 Pore, PAβN + antibiotic",1.020
same,MICb Alone,[13]; [39],0.25 µg/mL
same,MICb Combined,[13]; [40],0.13 µg/mL
same,interaction of PAβN in combination with the labelled antibiotic (FICI),[13],no longer synergistic
same,Effect,[13]; [41],Additive (additive (FICI >0.5-1.0))
same,FICI,[13]; [41],0.750
same,MICb Alone,"[13]; strain EKO-35 Pore, antibiotic alone",0.5 µg/mL
same,MICb Combined,"[13]; strain EKO-35 Pore, antibiotic in combination with NMP",0.25 µg/mL
CO[C@@H]1[C@@H](OC(N)=O)[C@@H](O)[C@H](Oc2ccc3c(O)c(NC(=O)c4ccc(O)c(CC=C(C)C)c4)c(=O)oc3c2C)OC1(C)C [novobiocin],MIC,[1]; Chlor +,1.56 µg/mL
same,MIC,[1]; Chlor −,3.13 µg/mL
same,Effect,"[5]; ΔtolC Pore, PAβN + antibiotic",Additive
same,FICI,"[5]; ΔtolC Pore, PAβN + antibiotic",0.740
same,MICb Alone,[5]; [16],0.25 µg/mL
same,MICb Combined,[5]; [17],0.06 µg/mL
same,Effect,[6]; [18],Synergistic
same,FICI,[6]; [18],0.375
same,MICb Alone,[6]; [19],8 µg/mL
same,MICb Combined,[6]; [20],2 µg/mL
same,Effect,"[7]; K-12, PAβN + antibiotic",Synergistic
same,FICI,"[7]; K-12, PAβN + antibiotic",0.188
same,MICb Alone,[7]; [22],128 µg/mL
same,MICb Combined,[7]; K-12,8 µg/mL
same,Effect,"[8]; ΔtolC, PAβN + antibiotic",Synergistic
same,FICI,"[8]; ΔtolC, PAβN + antibiotic",0.500
same,MICb Alone,[8]; [23],2 µg/mL
same,MICb Combined,[8]; [24],0.5 µg/mL
same,Effect,"[9]; EKO-35, PAβN + antibiotic",Synergistic
same,FICI,"[9]; EKO-35, PAβN + antibiotic",0.375
same,MICb Alone,[9]; [25],4 µg/mL
same,MICb Combined,[9]; [26],1 µg/mL
same,interaction of PAβN in combination with the labelled antibiotic (FICI),[9],synergized
same,Effect,[10]; [28],Additive
same,FICI,[10]; [28],0.750
same,MICb Alone,[10]; [29],1 µg/mL
same,MICb Combined,[10]; [30],0.25 µg/mL
same,Effect,[11]; [33],Synergistic
same,FICI,[11]; [33],0.094
same,MICb Alone,"[11]; EKO-35 acrB Pore, antibiotic alone (PAβN checkerboard)",512 µg/mL
same,MICb Combined,[11]; [34],16 µg/mL
same,Effect,"[12]; K-12 Pore, PAβN + antibiotic",Additive
same,FICI,"[12]; K-12 Pore, PAβN + antibiotic",0.508
same,MICb Alone,[12]; [36],16 µg/mL
same,MICb Combined,[12]; [37],8 µg/mL
same,Effect,"[13]; EKO-35 Pore, PAβN + antibiotic",Additive
same,FICI,"[13]; EKO-35 Pore, PAβN + antibiotic",0.630
same,MICb Alone,[13]; [39],1 µg/mL
same,MICb Combined,[13]; [40],0.13 µg/mL
same,interaction of PAβN in combination with the labelled antibiotic (FICI),[13],no longer synergistic
same,MIC,"[3]; Escherichia coli, K-12 empty pCA24N, Chlor + (25 μg/mL chloramphenicol), read-out: MIC",200 µg/mL
same,MIC,"[4]; EKO-35 wcaC, Chlor + (4 μg/mL)",1.56 µg/mL
